# Test results reported in ChEMBL document CHEMBL1800012, “Optimisation of a novel series of selective CNS penetrant CB(2) agonists” (Bioorg Med Chem Lett, 2011).
# System: not listed separately
# Experiment: Clearance in rat at 1 mg/kg, iv
# Format: ADME, organism-based
# Parameters: dose 1 mg/kg, route intravenous
# Conditions: in vivo
row,Compound,clearance [mL/min/kg]
1,CCS(=O)(=O)c1ccc2c(c1)nc(C(C)(C)C)n2CC1CC1,20
2,CCS(=O)(=O)c1ccc2c(c1)nc(C(C)(C)C)n2C[C@@H]1CCCO1,27.1

# Target: T1, Cannabinoid receptor 1 (Homo sapiens, UniProt P21554)
# Experiment: Agonist activity at human CB1 receptor by functional assay
# Conditions: not given
# T1 sequence (P21554 whole entry): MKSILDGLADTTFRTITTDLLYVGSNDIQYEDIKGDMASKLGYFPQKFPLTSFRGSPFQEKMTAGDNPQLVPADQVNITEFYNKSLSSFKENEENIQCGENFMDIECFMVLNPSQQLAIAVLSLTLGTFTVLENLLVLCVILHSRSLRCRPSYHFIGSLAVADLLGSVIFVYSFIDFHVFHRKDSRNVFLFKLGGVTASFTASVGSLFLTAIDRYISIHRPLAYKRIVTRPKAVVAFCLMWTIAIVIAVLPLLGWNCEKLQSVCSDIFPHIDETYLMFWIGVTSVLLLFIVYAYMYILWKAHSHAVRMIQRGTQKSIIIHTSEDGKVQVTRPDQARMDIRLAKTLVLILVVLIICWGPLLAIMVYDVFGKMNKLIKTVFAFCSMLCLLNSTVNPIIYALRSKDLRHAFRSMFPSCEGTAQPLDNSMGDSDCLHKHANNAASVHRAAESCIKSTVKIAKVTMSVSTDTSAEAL
row,Compound,EC50 [nM]
1,CCS(=O)(=O)c1ccc2c(c1)nc(C(C)(C)C)n2CC1CC1,> 10

# System: not listed separately
# Experiment: Intrinsic clearance in human liver microsomes
# Format: ADME, Microsome
# Conditions: not given
row,Compound,microsomal CLint [µL/min/mg]
1,CCS(=O)(=O)c1ccc2c(c1)nc(C1CCC1)n2CC1CC1,8
2,CCS(=O)(=O)c1ccc2c(c1)nc(C1(C)CC1)n2CC1CC1,8
3,CCS(=O)(=O)c1ccc2c(c1)nc(C(C)(C)C)n2CCN(C)C,8
4,CC(C)(C)Cc1nc2cc(S(=O)(=O)Cc3ccccc3)ccc2n1CC1CC1,276
5,CC(C)(C)Cc1nc2cc(S(=O)(=O)C(C)(C)CO)ccc2n1CC1CC1,< 7
6,CCS(=O)(=O)c1ccc2c(c1)nc(C1CCCC1)n2CC1CC1,11
7,CCS(=O)(=O)c1ccc2c(c1)nc(C(C)(C)C)n2CC1CC1,9
8,CCS(=O)(=O)c1ccc2c(c1)nc(C1(C)CCCC1)n2CC1CC1,42
9,CCS(=O)(=O)c1ccc2c(c1)nc(C(C)(C)C)n2C1CC1,8
10,CC(C)(C)Cc1nc2cc(S(=O)(=O)CC(C)(C)O)ccc2n1CC1CC1,< 7
11,CCS(=O)(=O)c1ccc2c(c1)nc(C(C)(C)C)n2CCOC(F)(F)F,7
12,CC(C)S(=O)(=O)c1ccc2c(c1)nc(CC(C)(C)C)n2CC1CC1,23
13,CCS(=O)(=O)c1ccc2c(c1)nc(C(C)(C)C)n2C[C@@H]1CCCO1,12
14,CC(C)(C)Cc1nc2cc(S(=O)(=O)C(C)(C)C)ccc2n1CC1CC1,38
15,CN(C)CCn1c(CC(C)(C)C)nc2cc(S(=O)(=O)CC(C)(C)O)ccc21,< 7
16,CN(C)CCS(=O)(=O)c1ccc2c(c1)nc(CC(C)(C)C)n2CC1CC1,79
17,CCCc1nc2cc(S(=O)(=O)CC)ccc2n1CC1CC1,43
18,CCS(=O)(=O)c1ccc2c(c1)nc(CC(C)(C)C)n2CC1CC1,8.4

# Organism: Rattus norvegicus
# Experiment: Ratio of unbound drug level in brain to plasma in rat relative to control
# Format: ADME, organism-based
# Conditions: in vivo
row,Compound,BPR
1,CCS(=O)(=O)c1ccc2c(c1)nc(C(C)(C)C)n2CC1CC1,30
2,CN(C)CCn1c(CC(C)(C)C)nc2cc(S(=O)(=O)CC(C)(C)O)ccc21,< 1%

# System: not listed separately
# Experiment: Ratio of unbound drug level in brain to plasma in rat
# Format: ADME, organism-based
# Conditions: brain and plasma, read-out: BPR
row,Compound,Kp uu
1,CCS(=O)(=O)c1ccc2c(c1)nc(C(C)(C)C)n2C[C@@H]1CCCO1,1

# Target: T2, Cannabinoid receptor 2 (Homo sapiens, UniProt P34972)
# Experiment: Agonist activity at human recombinant CB2 receptor expressed in CHO cells assessed as inhibition forskolin-induced cAMP release
# Format: functional, cell-based
# Conditions: not given
# T2 sequence (P34972 whole entry): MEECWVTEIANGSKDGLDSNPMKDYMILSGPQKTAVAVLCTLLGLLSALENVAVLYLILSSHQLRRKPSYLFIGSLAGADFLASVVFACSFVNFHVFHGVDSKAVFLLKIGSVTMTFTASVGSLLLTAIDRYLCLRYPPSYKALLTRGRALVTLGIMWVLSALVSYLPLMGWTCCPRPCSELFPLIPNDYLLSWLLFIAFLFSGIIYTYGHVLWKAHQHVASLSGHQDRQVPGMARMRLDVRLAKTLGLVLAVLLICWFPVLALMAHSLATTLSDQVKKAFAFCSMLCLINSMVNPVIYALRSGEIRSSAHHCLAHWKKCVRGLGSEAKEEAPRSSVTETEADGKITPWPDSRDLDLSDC
row,Compound,EC50 [nM]
1,CCS(=O)(=O)c1ccc2c(c1)nc(C1CCC1)n2CC1CC1,82
2,CCS(=O)(=O)c1ccc2c(c1)nc(C1(C)CC1)n2CC1CC1,51
3,CCS(=O)(=O)c1ccc2c(c1)nc(C(C)(C)C)n2CCN(C)C,39
4,CC(C)(C)Cc1nc2cc(S(=O)(=O)Cc3ccccc3)ccc2n1CC1CC1,6.5
5,CCS(=O)(=O)c1ccc2c(c1)nc(C(C)C)n2CC1CC1,132
6,CC(C)(C)Cc1nc2cc(S(=O)(=O)C(C)(C)CO)ccc2n1CC1CC1,1.2
7,CCS(=O)(=O)c1ccc2c(c1)nc(C1CCCC1)n2CC1CC1,25
8,CCS(=O)(=O)c1ccc2c(c1)nc(C(C)(C)C)n2CC1CC1,2.7
9,CCS(=O)(=O)c1ccc2c(c1)nc(C1(C)CCCC1)n2CC1CC1,9.6
10,CCS(=O)(=O)c1ccc2c(c1)nc(C(C)(C)C)n2C1CC1,106
11,CC(C)(C)Cc1nc2cc(S(=O)(=O)CC(C)(C)O)ccc2n1CC1CC1,3.1
12,CCS(=O)(=O)c1ccc2c(c1)nc(C(C)(C)C)n2CCOC(F)(F)F,5.3
13,CC(C)S(=O)(=O)c1ccc2c(c1)nc(CC(C)(C)C)n2CC1CC1,3.2
14,CCS(=O)(=O)c1ccc2c(c1)nc(C(C)(C)C)n2C[C@@H]1CCCO1,11
15,CC(C)(C)Cc1nc2cc(S(=O)(=O)C(C)(C)C)ccc2n1CC1CC1,0.43
16,CCS(=O)(=O)c1ccc2c(c1)nc(CC1CC1)n2CC1CC1,425
17,CN(C)CCn1c(CC(C)(C)C)nc2cc(S(=O)(=O)CC(C)(C)O)ccc21,12
18,CN(C)CCS(=O)(=O)c1ccc2c(c1)nc(CC(C)(C)C)n2CC1CC1,32
19,CCS(=O)(=O)c1ccc2c(c1)nc(CCC(C)C)n2CC1CC1,67
20,CCCc1nc2cc(S(=O)(=O)CC)ccc2n1CC1CC1,199
21,CCS(=O)(=O)c1ccc2c(c1)nc(CC(C)(C)C)n2CC1CC1,2.9

# System: not listed separately
# Experiment: Volume of distribution in rat at 1 mg/kg, iv
# Format: ADME, organism-based
# Parameters: dose 1 mg/kg, route intravenous
# Conditions: in vivo
row,Compound,Vd [L/kg]
1,CCS(=O)(=O)c1ccc2c(c1)nc(C(C)(C)C)n2CC1CC1,3.2
2,CCS(=O)(=O)c1ccc2c(c1)nc(C(C)(C)C)n2C[C@@H]1CCCO1,1

# System: not listed separately
# Experiment: Oral bioavailability in rat
# Format: ADME, organism-based
# Conditions: in vivo
row,Compound,bioavailability [%]
1,CCS(=O)(=O)c1ccc2c(c1)nc(C(C)(C)C)n2CC1CC1,100
2,CN(C)CCn1c(CC(C)(C)C)nc2cc(S(=O)(=O)CC(C)(C)O)ccc21,21

# Target: T1, Cannabinoid receptor 1
# Experiment: Binding affinity at human CB1 receptor
# Conditions: not given
row,Compound,Ki [nM]
1,CCS(=O)(=O)c1ccc2c(c1)nc(C(C)(C)C)n2CC1CC1,> 20000
2,CC(C)S(=O)(=O)c1ccc2c(c1)nc(CC(C)(C)C)n2CC1CC1,> 10000
3,CN(C)CCn1c(CC(C)(C)C)nc2cc(S(=O)(=O)CC(C)(C)O)ccc21,> 19400

# System: not listed separately
# Experiment: Half life in rat at 1 mg/kg, iv
# Format: ADME, organism-based
# Parameters: dose 1 mg/kg, route intravenous
# Conditions: in vivo
row,Compound,half-life [h]
1,CCS(=O)(=O)c1ccc2c(c1)nc(C(C)(C)C)n2CC1CC1,1.9
2,CCS(=O)(=O)c1ccc2c(c1)nc(C(C)(C)C)n2C[C@@H]1CCCO1,0.4

# System: not listed separately
# Experiment: Intrinsic clearance in rat liver microsomes
# Format: ADME, Microsome
# Conditions: not given
row,Compound,microsomal CLint [µL/min/mg]
1,CCS(=O)(=O)c1ccc2c(c1)nc(C1CCC1)n2CC1CC1,33
2,CCS(=O)(=O)c1ccc2c(c1)nc(C1(C)CC1)n2CC1CC1,11
3,CCS(=O)(=O)c1ccc2c(c1)nc(C(C)(C)C)n2CCN(C)C,8.5
4,CC(C)(C)Cc1nc2cc(S(=O)(=O)Cc3ccccc3)ccc2n1CC1CC1,369
5,CC(C)(C)Cc1nc2cc(S(=O)(=O)C(C)(C)CO)ccc2n1CC1CC1,54
6,CCS(=O)(=O)c1ccc2c(c1)nc(C1CCCC1)n2CC1CC1,106
7,CCS(=O)(=O)c1ccc2c(c1)nc(C(C)(C)C)n2CC1CC1,12
8,CCS(=O)(=O)c1ccc2c(c1)nc(C1(C)CCCC1)n2CC1CC1,106
9,CCS(=O)(=O)c1ccc2c(c1)nc(C(C)(C)C)n2C1CC1,8.5
10,CC(C)(C)Cc1nc2cc(S(=O)(=O)CC(C)(C)O)ccc2n1CC1CC1,244
11,CCS(=O)(=O)c1ccc2c(c1)nc(C(C)(C)C)n2CCOC(F)(F)F,19
12,CC(C)S(=O)(=O)c1ccc2c(c1)nc(CC(C)(C)C)n2CC1CC1,144
13,CCS(=O)(=O)c1ccc2c(c1)nc(C(C)(C)C)n2C[C@@H]1CCCO1,17
14,CN(C)CCn1c(CC(C)(C)C)nc2cc(S(=O)(=O)CC(C)(C)O)ccc21,< 11.2
15,CN(C)CCS(=O)(=O)c1ccc2c(c1)nc(CC(C)(C)C)n2CC1CC1,170
16,CCCc1nc2cc(S(=O)(=O)CC)ccc2n1CC1CC1,34
17,CCS(=O)(=O)c1ccc2c(c1)nc(CC(C)(C)C)n2CC1CC1,38

# Target: T2, Cannabinoid receptor 2
# Experiment: Agonist activity at human recombinant CB2 receptor expressed in CHO cells assessed as inhibition forskolin-induced cAMP release relative to control
# Format: functional, cell-based
# Conditions: not given
row,Compound,Emax [%]
1,CCS(=O)(=O)c1ccc2c(c1)nc(CC1CC1)n2CC1CC1,79
2,CCS(=O)(=O)c1ccc2c(c1)nc(CCC(C)C)n2CC1CC1,58
